Results taken from patent US20240376094A2, “SELECTIVE BCL-XL PROTAC COMPOUNDS AND METHODS OF USE” (Les Laboratoires Servier, priority 2021, published 2024).

Key:
[1] = target: T1, HiBiT-tagged BCL-xL (Homo sapiens, UniProt Q07817); test: NCI-H1650 BCL-xL protein levels, Nano-Glo HiBiT Lytic Detection; type: cell-based; settings: NCI-H1650 expressing HiBiT-tagged BCL-xL, overnight incubation, read-out: Bcl-xl HIBIT NCIH1650 DC50
T1 construct: expressed in transfected cells; host or cells: NCI-H1650 (ATCC No. CRL-5883), engineered HiBiT cell line
Procedure, shortened: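 NCI-H1650 cells expressing HiBiT-tagged BCL-xL (5000/well) were treated overnight at 37° C with 10 concentrations, final 0.508 nM-10 μM, in triplicate. Remaining BCL-xL measured by Nano-Glo HiBiT lytic luminescence, normalized to untreated cells; 50% values by four-parameter logistic fit.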

[2] = tested on: EBC-1 lung cancer cell line; test: EBC-1 cell proliferation, CellTiter-Glo assay; type: cell-based; settings: Homo sapiens, 120 h; Ebc-1 cell viability, CTG assay, 5 days of treatment; read-out: CTG 5 day Ebc1 GI50
Procedure, shortened: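 EBC-1 cells seeded at 1000 per well overnight, then exposed to 10-point dilutions (0.508 nM–10 μM final) for 5 days at 37 °C, in triplicate. ATP luminescence by CellTiter-Glo, normalised to untreated wells; GI50 from four-parameter logistic fit, runs valid only with at least one doubling.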

T1 sequence (Q07817 whole entry): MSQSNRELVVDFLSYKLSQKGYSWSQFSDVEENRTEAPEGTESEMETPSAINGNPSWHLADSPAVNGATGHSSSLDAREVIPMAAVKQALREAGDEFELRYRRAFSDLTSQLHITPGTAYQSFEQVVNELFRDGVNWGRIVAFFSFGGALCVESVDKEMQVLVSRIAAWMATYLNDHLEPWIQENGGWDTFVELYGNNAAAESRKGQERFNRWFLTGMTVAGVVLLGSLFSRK

Q: For `Cc1ncsc1-c1ccc([C@H](C)NC(=O)C2CC(O)CN2C(=O)C(NC(=O)CCCCCCCCCCCN2CCN(CC#Cc3ccc(OCCCc4sc(N5CCCc6c5nnc(Nc5nc7ccccc7s5)c6C)nc4C(=O)O)c(F)c3)CC2)C(C)(C)C)cc1` (stereo in doubt) [Example 31, 2-[3-(1,3-benzothiazol-2-ylamino)-4-methyl-6,7-dihydro-5H-pyrido[2,3-c]pyridazin-8-yl]-5-[3-[2-fluoro-4-[3-[4-[12-[[(1S)-1-[(2S,4R)-4-hydroxy-2-[[(1S)-1-[4-(4-methylthiazol-5-yl)phenyl]ethyl]carbamoyl]pyrrolidine-1-carbonyl]-2,2-dimethyl-propyl]amino]-12-oxo-dodecyl]piperazin-1-yl]prop-1-ynyl]phenoxy]propyl] thiazole-4-carboxylic acid], which DC50 [1] is on record?
A: 0.4 nM

Q: What about the GI50 [2] of the same compound?
A: 1 nM
